The values below come from ChEMBL document CHEMBL1148219, “Cytotoxic sesquiterpene lactones from Eupatorium lindleyanum” (J Nat Prod, 2004).

Each structure is given as a SMILES string. Values after ≈ are worked out from the molar mass of the structure shown. Active and inactive are the calls of the source. The calls are words filed in the database; no cut-off is given here.

For one experiment, the system named is P388. Description: Cytotoxicity against mouse P388 cells after 24 hrs. Format: functional, cell-based. To be noted: for IC50: P388, 24 h.
The test system of another experiment is A549. Briefly: Cytotoxicity against human A549 cells after 24 hrs. In kind it is functional, cell-based. To be noted: for IC50: A549, 24 h.

`C=C1C(=O)O[C@@H]2[C@H]3C(C)=C[C@@H](O)[C@H]3[C@@](O)(CO)C[C@@H](OC(=O)/C(C)=C/CO)[C@@H]12`: the result with P388 and in the experiment with A549 was inactive.

For the compound `C=C1C(=O)O[C@H]2[C@H]1[C@H](OC(=O)/C(C)=C/CO)C[C@](O)(CO)[C@@H]1[C@H](O)[C@H]3O[C@@]3(C)[C@H]21`, the result in the experiment on P388 and in the experiment on A549 was inactive. By IC50 is commonly meant the concentration that inhibits the measured activity by half. A low value points to higher potency. As for `C=C1C(=O)O[C@H]2[C@H]1[C@H](OC(=O)/C(C)=C/CO)CC(=C)[C@@H]1C=C[C@@](C)(O)[C@H]21` [EUPALINILIDE B], the IC50 is 0.21 µg/mL (≈ 0.583 µM) with P388 and 0.75 µg/mL (≈ 2.08 µM) in the experiment on A549. Turning to `C=C1C(=O)O[C@@H]2[C@H]3C(C)=C[C@H]4OC[C@@](O)(C[C@@H](OC(=O)/C(C)=C/CO)[C@@H]12)[C@@H]34` [EUPALINILIDE C], the IC50 in the experiment with P388 stood at 1.2 µg/mL (≈ 3.19 µM); with A549, 11 µg/mL (≈ 29.2 µM). `C=C1C(=O)O[C@@H]2[C@H]3C(C)=C[C@@H](O)[C@H]3[C@@](O)(CCl)C[C@@H](OC(=O)/C(C)=C/C)[C@@H]12` [EUPALINILIDE E]: the result in the experiment on P388 was inactive. Further, the midpoint of inhibition with A549, the IC50, lay at 0.028 µg/mL (≈ 0.0706 µM). In the experiment with A549, `COC(=O)C1=CC[C@@]23CC[C@@H]([C@@](C)(/C=C/C=C(\C)C(=O)O)OC2=O)[C@@]3(OC(C)=O)CC1` [PSEUDOLARIC ACID B] had an IC50 of 0.86 µg/mL (≈ 1.99 µM).
